From PubChem BioAssay AID1918993 (Molecular Pharmacology Branch, DTP, NCI, 2023)
Values joined by “and” are separate entries in the source; they are usually repeats but may differ in a detail not shown here. Equal values may be shown once.

Test system: 233499-124-R-J3-PDC complex spheroid growth
Test: Anticancer human tumor 233499-124-R-J3-PDC patient-derived colon adenocarcinoma cell line growth inhibition [AhR]
Conditions: for viability, T/C: stronger effect = lower value
Outline: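 Agents were dosed in half-log steps down from roughly clinical Cmax, or from 10 microM where Cmax was unknown, alone and with AhR antagonists. Read-out: percent test/control growth of tumor spheroids containing HUVEC and MSC stromal cells.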

[1] = curve of first compound, second compound 0.1 µM
[2] = curve of first compound, second compound 0.316 µM
[3] = curve of first compound, second compound 1 µM
[4] = curve of first compound, second compound 3.16 µM
[5] = curve of first compound, second compound 10 µM
[6] = second compound 0.1 µM, first compound 0.000316 µM
[7] = second compound 0.1 µM, first compound 0.001 µM
[8] = second compound 0.1 µM, first compound 0.00316 µM
[9] = second compound 0.1 µM, first compound 0.01 µM
[10] = second compound 0.1 µM, first compound 0.0316 µM
[11] = second compound 0.1 µM, first compound 0.1 µM
[12] = second compound 0.316 µM, first compound 0.000316 µM
[13] = second compound 0.316 µM, first compound 0.001 µM
[14] = second compound 0.316 µM, first compound 0.00316 µM
[15] = second compound 0.316 µM, first compound 0.01 µM
[16] = second compound 0.316 µM, first compound 0.0316 µM
[17] = second compound 0.316 µM, first compound 0.1 µM
[18] = second compound 1 µM, first compound 0.000316 µM
[19] = second compound 1 µM, first compound 0.001 µM
[20] = second compound 1 µM, first compound 0.00316 µM
[21] = second compound 1 µM, first compound 0.01 µM
[22] = second compound 1 µM, first compound 0.0316 µM
[23] = second compound 1 µM, first compound 0.1 µM
[24] = second compound 3.16 µM, first compound 0.000316 µM
[25] = second compound 3.16 µM, first compound 0.001 µM
[26] = second compound 3.16 µM, first compound 0.00316 µM
[27] = second compound 3.16 µM, first compound 0.01 µM
[28] = second compound 3.16 µM, first compound 0.0316 µM
[29] = second compound 3.16 µM, first compound 0.1 µM
[30] = second compound 10 µM, first compound 0.000316 µM
[31] = second compound 10 µM, first compound 0.001 µM
[32] = second compound 10 µM, first compound 0.00316 µM
[33] = second compound 10 µM, first compound 0.01 µM
[34] = second compound 10 µM, first compound 0.0316 µM
[35] = second compound 10 µM, first compound 0.1 µM
[36] = second compound 0.1 µM, first compound 0.316 µM
[37] = second compound 0.1 µM, first compound 1 µM
[38] = second compound 0.1 µM, first compound 3.16 µM
[39] = second compound 0.1 µM, first compound 10 µM
[40] = second compound 0.316 µM, first compound 0.316 µM
[41] = second compound 0.316 µM, first compound 1 µM
[42] = second compound 0.316 µM, first compound 3.16 µM
[43] = second compound 0.316 µM, first compound 10 µM
[44] = second compound 1 µM, first compound 0.316 µM
[45] = second compound 1 µM, first compound 1 µM
[46] = second compound 1 µM, first compound 3.16 µM
[47] = second compound 1 µM, first compound 10 µM
[48] = second compound 3.16 µM, first compound 0.316 µM
[49] = second compound 3.16 µM, first compound 1 µM
[50] = second compound 3.16 µM, first compound 3.16 µM
[51] = second compound 3.16 µM, first compound 10 µM
[52] = second compound 10 µM, first compound 0.316 µM
[53] = second compound 10 µM, first compound 1 µM
[54] = second compound 10 µM, first compound 3.16 µM
[55] = second compound 10 µM, first compound 10 µM
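Also: spheroids exposed to agents for seven days before reading.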

Row | SMILES | IC50 [1] [µM] | IC50 [2] [µM] | IC50 [3] [µM] | IC50 [4] [µM] | IC50 [5] [µM] | viability, T/C [10] [%] | viability, T/C [11] [%] | viability, T/C [16] [%] | viability, T/C [17] [%] | viability, T/C [22] [%] | viability, T/C [23] [%] | viability, T/C [28] [%] | viability, T/C [29] [%] | viability, T/C [34] [%] | viability, T/C [35] [%] | viability, T/C [36] [%] | viability, T/C [37] [%] | viability, T/C [40] [%] | viability, T/C [41] [%] | viability, T/C [44] [%] | other results
1 | CC[C@@]1(O)C(=O)OCc2c1cc1n(c2=O)Cc2cc3c(CN(C)C)c(O)ccc3nc2-1 + Cc1ccccc1N=Nc1ccc(NC(=O)c2ccnn2C)c(C)c1 | > 0.1 | > 0.1 | > 0.1 | > 0.1 | > 0.1 | 79.4 | 92.1 | 111 | 91.2 | 87.3 | 95 | 95.9 | 87.9 | 101 | 106 | – | – | – | – | – | viability, T/C [6]: 88.5%; viability, T/C [7]: 105%; viability, T/C [8]: 113%; viability, T/C [9]: 109%; viability, T/C [12]: 114%; viability, T/C [13]: 110%; viability, T/C [14]: 90.8%; viability, T/C [15]: 98.8%; viability, T/C [18]: 97.9%; viability, T/C [19]: 105%; viability, T/C [20]: 89.5%; viability, T/C [21]: 93.2%; viability, T/C [24]: 111%; viability, T/C [25]: 105%; viability, T/C [26]: 96.1%; viability, T/C [27]: 98.2%; viability, T/C [30]: 102%; viability, T/C [31]: 113%; viability, T/C [32]: 95.5%; viability, T/C [33]: 104%
2 | Cn1ncnc1C1c2n[nH]c(=O)c3cc(F)cc(c23)NC1c1ccc(F)cc1 (configuration not stated) + Cc1cncc(-c2nc(NCCc3c[nH]c4ccccc34)c3ncn(C(C)C)c3n2)c1 | > 0.1 | > 0.1 | > 0.1 | > 0.1 | < 0.000316 | 88.7 | 101 | 78.3 | 96.2 | 76.5 | 91.4 | 76.1 | 71.3 | 14.8 | 18.6 | – | – | – | – | – | viability, T/C [6]: 93.4%; viability, T/C [7]: 97.3%; viability, T/C [8]: 109%; viability, T/C [9]: 108%; viability, T/C [12]: 88.7%; viability, T/C [13]: 81.3%; viability, T/C [14]: 93.5%; viability, T/C [15]: 87.3%; viability, T/C [18]: 79.4%; viability, T/C [19]: 75.9%; viability, T/C [20]: 78.8%; viability, T/C [21]: 78%; viability, T/C [24]: 84.4%; viability, T/C [25]: 81.2%; viability, T/C [26]: 73.2%; viability, T/C [27]: 66.6%; viability, T/C [30]: 23.2%; viability, T/C [31]: 13.3%; viability, T/C [32]: 23.2%; viability, T/C [33]: 26.1%
3 | CC1COCCN1c1cc(-c2ccnn2C)c2ccnc(-c3ccn[nH]3)c2n1 (configuration not stated) + Cc1ccccc1N=Nc1ccc(NC(=O)c2ccnn2C)c(C)c1 | > 1 | > 1 | 0.984 | > 1 | > 1 | 105 | 93.9 | 92.2 | 92.3 | 85.6 | 91.8 | 85 | 74 | 101 | 80.5 | 68.2 | 55.1 | 75 | 50.7 | 81.6 | viability, T/C [8]: 91.3%; viability, T/C [9]: 98.8%; viability, T/C [14]: 99.4%; viability, T/C [15]: 93.9%; viability, T/C [20]: 87.1%; viability, T/C [21]: 97.1%; viability, T/C [45]: 49.3%; viability, T/C [26]: 91.8%; viability, T/C [27]: 103%; viability, T/C [48]: 57.2%; viability, T/C [49]: 58%; viability, T/C [32]: 103%; viability, T/C [33]: 99.3%; viability, T/C [52]: 74.5%; viability, T/C [53]: 58.7%
4 | O=C(c1cc(Cc2n[nH]c(=O)c3ccccc23)ccc1F)N1CCN(C(=O)C2CC2)CC1 + Cc1ccccc1N=Nc1ccc(NC(=O)c2ccnn2C)c(C)c1 | > 10 | > 10 | > 10 | > 10 | > 10 | 106 | 109 | 106 | 99.9 | 99.7 | 106 | 100 | 106 | 106 | 107 | 89 | 117 | 89.6 | 93.5 | 98.1 | viability, T/C [38]: 114%; viability, T/C [39]: 112%; viability, T/C [42]: 92.7%; viability, T/C [43]: 106%; viability, T/C [45]: 106%; viability, T/C [46]: 110%; viability, T/C [47]: 111%; viability, T/C [48]: 92.8%; viability, T/C [49]: 100%; viability, T/C [50]: 89.3%; viability, T/C [51]: 92.8%; viability, T/C [52]: 110%; viability, T/C [53]: 111%; viability, T/C [54]: 98.9%; viability, T/C [55]: 101%
5 | CCc1c2c(nc3ccc(O)cc13)-c1cc3c(c(=O)n1C2)COC(=O)[C@]3(O)CC | – | – | – | – | – | – | – | – | – | – | – | – | – | – | – | – | – | – | – | – | viability, T/C (compound 0.000949 µM): 117% and 96.2% and 99.4%; viability, T/C (compound 0.003 µM): 93.8% and 87.6% and 85.8%; viability, T/C (compound 0.00949 µM): 89.5% and 85.3% and 77.4%; viability, T/C (compound 0.03 µM): 69.6% and 75.1% and 56.9%; viability, T/C (compound 0.0949 µM): 84.1% and 84% and 77.8%; viability, T/C (compound 0.3 µM): 98.5% and 95.3% and 73.3%; IC50 (curve of compound): > 0.3 µM

Now from value to compound, other results behind:

Row | IC50 [1] [µM] | IC50 [2] [µM] | IC50 [3] [µM] | IC50 [4] [µM] | IC50 [5] [µM] | SMILES | viability, T/C [10] [%] | viability, T/C [11] [%] | viability, T/C [16] [%] | viability, T/C [17] [%] | viability, T/C [22] [%] | viability, T/C [23] [%] | viability, T/C [28] [%] | viability, T/C [29] [%] | viability, T/C [34] [%] | viability, T/C [35] [%] | viability, T/C [36] [%] | viability, T/C [37] [%] | viability, T/C [40] [%] | viability, T/C [41] [%] | viability, T/C [44] [%] | other results
6 | > 10 | > 10 | > 10 | > 10 | < 0.0316 | CC1(C)CCC(CN2CCN(c3ccc(C(=O)NS(=O)(=O)c4ccc(NCC5CCOCC5)c([N+](=O)[O-])c4)c(Oc4cnc5[nH]ccc5c4)c3)CC2)=C(c2ccc(Cl)cc2)C1 + Cc1cncc(-c2nc(NCCc3c[nH]c4ccccc34)c3ncn(C(C)C)c3n2)c1 | 103 | 97.9 | 82 | 95 | 94.6 | 84.2 | 71.6 | 68.5 | 12 | 9.79 | 92.6 | 104 | 88.2 | 95.7 | 85.8 | viability, T/C [38]: 100%; viability, T/C [39]: 109%; viability, T/C [42]: 96.8%; viability, T/C [43]: 96.3%; viability, T/C [45]: 82%; viability, T/C [46]: 85.2%; viability, T/C [47]: 89.3%; viability, T/C [48]: 76.5%; viability, T/C [49]: 63.5%; viability, T/C [50]: 70.3%; viability, T/C [51]: 81.7%; viability, T/C [52]: 7.48%; viability, T/C [53]: 23.7%; viability, T/C [54]: 8.38%; viability, T/C [55]: 15.6%
7 | > 10 | > 10 | > 10 | > 10 | < 0.0316 | O=C(c1cc(Cc2n[nH]c(=O)c3ccccc23)ccc1F)N1CCN(C(=O)C2CC2)CC1 + Cc1cncc(-c2nc(NCCc3c[nH]c4ccccc34)c3ncn(C(C)C)c3n2)c1 | 115 | 105 | 106 | 99.3 | 87.5 | 97.2 | 74.8 | 86.4 | 5.45 | 6.91 | 100 | 102 | 96.3 | 95.5 | 93.9 | viability, T/C [38]: 98.6%; viability, T/C [39]: 105%; viability, T/C [42]: 103%; viability, T/C [43]: 92.3%; viability, T/C [45]: 71.5%; viability, T/C [46]: 87.5%; viability, T/C [47]: 86%; viability, T/C [48]: 76.3%; viability, T/C [49]: 83.6%; viability, T/C [50]: 85.9%; viability, T/C [51]: 90.1%; viability, T/C [52]: 19.4%; viability, T/C [53]: 16.2%; viability, T/C [54]: 8.78%; viability, T/C [55]: 19.1%
